Legend:
293T cells = experiment: Growth assay (cytotoxicity); type: cell-based, human; conditions: Homo sapiens, HEK-293T, Formic Acid Salt (37: HCl Salt)
Protocol: A growth assay was performed to evaluate the compounds disclosed herein for cytotoxicity. Briefly, 5,000,000 293T cells were resuspended in 18 mL of cDMEM for a final concentration of […]. […] In a separate 96 well dilution plate, 199 uL cDMEM and 1 uL of DMSO or any one of the compounds disclosed herein (shown as Test Compound 1, 2, 3, 4, 5, or 6 below) were added to wells A4, A8, C4, C8, E4, E8, G4, and G8, 133.3 uL cDMEM was added to wells 1, 2, 3, 5, 6, and 7 in rows A, C, E and G of the dilution plate. Compounds were serially diluted leftwards in threefold dilutions (66.7 uL into 133.3 uL cDMEM). 20 uL of each dilution was transferred in duplicate (duplicates in vertical paired wells) to the cells plated in the 96-well plate shown in Table 5, to the total concentrations shown below. 200 uL cDMEM was addled to media wells (wells G5-H8). The plate was then placed in a humidified chamber for a […], and then photographed (media was more yellow in wells with potent cell growth). Absorbance was then measured at ˜[…] (lower for more acidic media) and ˜450 nM (higher for more acidic media).

IRE1a [1] = experiment: IRE1a Endoribonuclease Nanoluciferase Assay (XBP1 luciferase reporter in 293T cells); type: cell-based, human; conditions: ER stressor, tested as Formic Acid Salt (37: HCl Salt)
Summary of the method: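 293T cells transiently transfected with a PGK-Luc2-P2A-XBP1u-Nanoluciferase-Pest reporter, replated after 6 h, then treated next day with ER stressors ± inhibitors. After lysis, firefly luminescence then nanoluciferase luminescence read sequentially (1000 ms integration each).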

IRE1a [2] = molecular target: T1, IRE1a (Homo sapiens, UniProt O75460); experiment: In vitro FRET assay (IRE1a cleavage of XBP1 RNA probe); type: biochemical; conditions: 2 nM SignalChem IRE1a, tested as Formic Acid Salt (37: HCl Salt)
T1 construct: purchased SignalChem
T1 sequence (O75460 19-977): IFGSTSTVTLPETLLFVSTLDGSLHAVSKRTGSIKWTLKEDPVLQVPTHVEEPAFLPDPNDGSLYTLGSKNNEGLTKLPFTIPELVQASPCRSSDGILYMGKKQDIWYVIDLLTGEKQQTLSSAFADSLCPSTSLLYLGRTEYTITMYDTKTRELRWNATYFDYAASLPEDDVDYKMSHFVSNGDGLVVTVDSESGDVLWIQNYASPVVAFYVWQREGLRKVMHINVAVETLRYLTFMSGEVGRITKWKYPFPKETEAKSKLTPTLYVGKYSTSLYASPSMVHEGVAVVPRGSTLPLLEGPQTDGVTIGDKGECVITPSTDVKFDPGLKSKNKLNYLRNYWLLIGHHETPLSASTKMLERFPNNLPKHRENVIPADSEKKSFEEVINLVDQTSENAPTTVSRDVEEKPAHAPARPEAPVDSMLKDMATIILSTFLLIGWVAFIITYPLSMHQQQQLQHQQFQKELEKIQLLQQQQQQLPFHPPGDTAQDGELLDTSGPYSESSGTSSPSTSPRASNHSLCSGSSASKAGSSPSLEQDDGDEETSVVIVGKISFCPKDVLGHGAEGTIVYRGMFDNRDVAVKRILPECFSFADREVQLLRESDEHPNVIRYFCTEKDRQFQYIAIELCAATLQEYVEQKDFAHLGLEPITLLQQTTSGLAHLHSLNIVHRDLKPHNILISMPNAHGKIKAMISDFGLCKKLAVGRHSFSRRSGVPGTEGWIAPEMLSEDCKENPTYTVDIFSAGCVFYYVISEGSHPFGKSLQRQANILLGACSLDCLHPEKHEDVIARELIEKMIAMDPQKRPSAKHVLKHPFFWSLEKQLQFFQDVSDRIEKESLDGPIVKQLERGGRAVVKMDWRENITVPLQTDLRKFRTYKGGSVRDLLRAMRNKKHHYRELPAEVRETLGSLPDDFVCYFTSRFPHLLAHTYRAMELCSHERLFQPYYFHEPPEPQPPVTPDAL
Summary of the method: Human

Row | EC50 (IRE1a [1]; Homo sapiens, HEK-293T) [nM] | IC50 (IRE1a [2]) [nM] | EC50 (IRE1a [1]) [nM] | Structure (SMILES) | viability at 0.185 µM (293T cells) [%] | viability at 0.5556 µM (293T cells) [%] | viability at 1.667 µM (293T cells) [%] | viability at 5 µM (293T cells) [%]
1 | ≤ 5 | ≤ 5 |  | CCc1cc(-c2ccc(NS(=O)(=O)c3ccccc3Cl)nn2)cc2cnc(N[C@H]3CC[C@H](N)CC3)nc12 [Compound 32, N-(6-(2-(((1r,4r)-4-aminocyclohexyl)amino)-8-ethylquinazolin-6-yl)pyridazin-3-yl)-2-chlorobenzene-sulfonamide] | 75 to 100 | 75 to 100 | 50 to 75 | 25 to 50
2 | ≤ 5 | ≤ 5 |  | CCc1cc(-c2ncc(NS(=O)(=O)c3ccccc3Cl)cc2F)cc2cnc(N[C@H]3CC[C@H](N)CC3)nc12 [Compound 52] | 75 to 100 | 75 to 100 | 75 to 100 | 50 to 75
3 | ≤ 5 | ≤ 5 |  | CCc1cc(-c2ccc(NS(=O)(=O)c3ccccc3Cl)c(F)c2C)cc2cnc(N[C@H]3CC[C@H](N)CC3)nc12 [Compound 71, N-(4-(2-(((1r,4r)-4-aminocyclohexyl)amino)-8-ethylquinazolin-6-yl)-2-fluoro-3-methylphenyl)-2-chlorobenzene-sulfonamide] | 75 to 100 | 75 to 100 | 50 to 75 | 25 to 50
4 | ≤ 5 | ≤ 5 |  | CCc1cc(-c2ccc(NS(=O)(=O)c3ccccc3Cl)cc2F)cc2cnc(N[C@H]3CC[C@H](N)CC3)nc12 [Compound 35, N-(4-(2-(((1r,4r)-4-aminocyclohexyl)amino)-8-ethylquinazolin-6-yl)-3-fluorophenyl)-2-chlorobenzene-sulfonamide] | 75 to 100 | 75 to 100 | 50 to 75 | 25 to 50
5 | ≤ 5 | ≤ 5 |  | CCc1cc(-c2ccc(NS(=O)(=O)c3ccccc3Cl)nc2C)cc2cnc(N[C@H]3CC[C@H](N(C)CCOC)CC3)nc12 [Compound 132, 2-chloro-N-(5-(8-ethyl-2-(((1r,4r)-4-((2-methoxyethyl)(methyl)amino)cyclohexyl)amino)quinazolin-6-yl)-6-methylpyridin-2-yl)benzenesulfonamide] |  |  |  | 
6 | ≤ 5 | ≤ 5 |  | CCc1nc(NS(=O)(=O)c2ccccc2Cl)ccc1-c1cc(CC)c2nc(N[C@H]3CC[C@H](N(C)C)CC3)ncc2c1 [Compound 117, 2-chloro-N-(5-(2-(((1r,4r)-4-(dimethylamino)cyclohexyl)amino)-8-ethylquinazolin-6-yl)-6-ethylpyridin-2-yl)benzenesulfonamide] |  |  |  | 
7 | ≤ 5 | ≤ 5 |  | COc1nc(NS(=O)(=O)c2ccccc2Cl)ccc1-c1cc(C)c2nc(N[C@H]3CC[C@H](N(C)C)CC3)ncc2c1 [Compound 133, 2-chloro-N-(5-(2-(((1r,4r)-4-(dimethylamino)cyclohexyl)amino)-8-methylquinazolin-6-yl)-6-methoxypyridin-2-yl)benzenesulfonamide] |  |  |  | 
8 | 100 to 10000 | ≤ 5 |  | CCc1cc(-c2cnc(NS(=O)(=O)c3ccccc3Cl)cc2OC)cc2cnc(N[C@H]3CC[C@H](N)CC3)nc12 [Compound 92, N-(5-(2-(((1r,4r)-4-aminocyclohexyl)amino)-8-ethylquinazolin-6-yl)-4-methoxypyridin-2-yl)-2-chlorobenzene-sulfonamide] |  |  |  | 
9 | ≤ 5 | ≤ 5 |  | COc1nc(NS(=O)(=O)c2ccccc2Cl)c(F)cc1-c1cc(C)c2nc(N[C@H]3CC[C@H](N(C)C)CC3)ncc2c1 [Compound 145, 2-chloro-N-(5-(2-(((1r,4r)-4-(dimethylamino)cyclohexyl)amino)-8-methylquinazolin-6-yl)-3-fluoro-6-methoxypyridin-2-yl)benzenesulfonamide] |  |  |  | 
10 |  | ≤ 5 | 5 to 50 | CCc1cc(-c2ccc(NS(=O)(=O)c3ccccc3Cl)c(F)c2)cc2cnc(N[C@H]3CC4C[C@H](N)CC4C3)nc12 (stereo partly drawn) [Compound 82, N-(4-(2-((4-5-aminooctahydro-pentalen-2-yl)amino)-8-ethylquinazolin-6-yl)-2-fluorophenyl)-2-chlorobenzene-sulfonamide] |  |  |  | 
11 | 5 to 50 | ≤ 5 |  | N[C@@H]1CC[C@@H](Nc2ncc3cc(-c4ccc(NS(=O)(=O)c5ccccc5Cl)c(F)c4)ccc3n2)C1 [Compound 77, N-(4-(2-(((1R,3R)-3-aminocyclopentyl)amino)quinazolin-6-yl)-2-fluorophenyl)-2-chlorobenzene-sulfonamide] |  |  |  | 
12 | ≤ 5 | ≤ 5 |  | CCc1cc(-c2cnc(NS(=O)(=O)c3ccccc3Cl)c(F)c2)cc2cnc(N[C@H]3CC[C@H](N(C)C)CC3)nc12 [Compound 95, 2-chloro-N-(5-(2-(((1r,4r)-4-(dimethylamino)cyclohexyl)amino)-8-ethylquinazolin-6-yl)-3-fluoropyridin-2-yl)benzenesulfonamide] |  |  |  | 
13 | ≤ 5 | ≤ 5 |  | N[C@H]1CC[C@H](Nc2ncc3cc(-c4cc(F)c(NS(=O)(=O)c5ccccc5Cl)cc4F)ccc3n2)CC1 [Compound 53, N-(4-(2-(((1r,4r)-4-aminocyclohexyl)amino)quinazolin-6-yl)-2,5-difluorophenyl)-2-chlorobenzene-sulfonamide] |  |  |  | 
14 | ≤ 5 | ≤ 5 |  | COCc1cc(-c2ccc(NS(=O)(=O)c3ccccc3Cl)nc2OC)cc2cnc(N[C@H]3CC[C@H](N(C)C)CC3)nc12 [Compound 137, 2-chloro-N-(5-(2-(((1r,4r)-4-(dimethylamino)cyclohexyl)amino)-8-(methoxymethyl)quinazolin-6-yl)-6-methoxypyridin-2-yl)benzenesulfonamide] |  |  |  | 
15 | ≤ 5 | ≤ 5 |  | CCc1cc(-c2ncc(NS(=O)(=O)c3ccccc3Cl)nc2OC)cc2cnc(N[C@H]3CC[C@H](N(C)C)CC3)nc12 [Compound 157, 2-chloro-N-(5-(2-(((1r,4r)-4-(dimethylamino)cyclohexyl)amino)-8-ethylquinazolin-6-yl)-6-methoxypyrazin-2-yl)benzenesulfonamide] |  |  |  | 
16 | ≤ 5 | ≤ 5 |  | CCc1cc(-c2cc(F)c(NS(=O)(=O)c3ccccc3Cl)nc2OC)cc2cnc(N[C@H]3CC[C@H](N(C)C)CC3)nc12 [Compound 128, 2-chloro-N-(5-(2-(((1r,4r)-4-(dimethylamino)cyclohexyl)amino)-8-ethylquinazolin-6-yl)-3-fluoro-6-methoxypyridin-2-yl)benzenesulfonamide] |  |  |  | 
17 | ≤ 5 | ≤ 5 |  | CCc1cc(-c2ccc(NS(=O)(=O)c3ccccc3Cl)nc2C)cc2cnc(NC3CCC(N(C)C)C[C@@H]3F)nc12 (stereo in doubt) [Compound 151, 2-chloro-N-(5-(2-(((1R,2S,4R)-4-(dimethylamino)-2-fluorocyclohexyl)amino)-8-ethylquinazolin-6-yl)-6-methylpyridin-2-yl)benzenesulfonamide] |  |  |  | 
18 | 5 to 50 | ≤ 5 |  | N[C@H]1CC[C@H](Nc2ncc3cc(-c4cnc(NS(=O)(=O)c5ccccc5Cl)c(F)c4)ccc3n2)CC1 [Compound 54, N-(5-(2-(((1r,4r)-4-aminocyclohexyl)amino)quinazolin-6-yl)-3-fluoropyridin-2-yl)-2-chlorobenzene-sulfonamide] |  |  |  | 
19 | 50 to 100 | ≤ 5 |  | CCc1cc(-c2cc(OC)c(NS(=O)(=O)c3ccccc3Cl)nn2)cc2cnc(N[C@H]3CC[C@H](N)CC3)nc12 [Compound 66, N-(6-(2-(((1r,4r)-4-aminocyclohexyl)amino)-8-ethylquinazolin-6-yl)-4-methoxypyridazin-3-yl)-2-chlorobenzene-sulfonamide] |  |  |  | 
20 | ≤ 5 | ≤ 5 |  | CCc1cc(-c2ncc(NS(=O)(=O)c3ccccc3Cl)nc2OC)cc2cnc(N[C@H]3CC[C@H](N)CC3)nc12 [Compound 98, N-(5-(2-(((1r,4r)-4-aminocyclohexyl)amino)-8-ethylquinazolin-6-yl)-6-methoxypyrazin-2-yl)-2-chlorobenzenesulfonamide] |  |  |  | 
21 | ≤ 5 | ≤ 5 |  | N[C@H]1CC[C@H](Nc2cc3ccc(-c4ccc(NS(=O)(=O)c5ccccc5Cl)c(F)c4)cc3cn2)CC1 [Compound 57, N-(4-(3-(((1r,4r)-4-aminocyclohexyl)amino)isoquinolin-7-yl)-2-fluorophenyl)-2-chlorobenzene-sulfonamide] |  |  |  | 

Row | Structure (SMILES) | EC50 (IRE1a [1]; Homo sapiens, HEK-293T) [nM] | IC50 (IRE1a [2]) [nM] | EC50 (IRE1a [1]) [nM] | viability at 0.185 µM (293T cells) [%] | viability at 0.5556 µM (293T cells) [%] | viability at 1.667 µM (293T cells) [%] | viability at 5 µM (293T cells) [%]
22 | CCc1cc(-c2ccc(NS(=O)(=O)c3ccccc3Cl)nc2OC)cc2cnc(N[C@H]3CC[C@H](N(C)C)CC3)nc12 [Compound 99, 2-chloro-N-(5-(2-(((1r,4r)-4-(dimethylamino)cyclohexyl)amino)-8-ethylquinazolin-6-yl)-6-methoxypyridin-2-yl)benzenesulfonamide] | ≤ 5 | ≤ 5 |  |  |  |  | 
